In US8309552B2, “Immunomodulating heterocyclic compounds” (Medigene AG, priority 2003, dated 2012):
Read-outs that look alike come from different tables or passages of the source.

Tests used:
[1] = system: production of Interleukin-2 (IL-2) by Human Jurkat T Cells; experiment: Inhibition of production of interleukin-2 (IL-2) by human Jurkat T cells (Raji/Jurkat co-culture, anti-CD3, IL-2 ELISA); format: cell-based; settings: read-out: Percentage Inhibition (relative to DMSO = 0%); for inhibition at 10 µM: Compound Concentration 10 μM; for inhibition at 30 µM: Compound Concentration 30 μM
Protocol: • Collins A V et al. (2002) Immunity 17, 201-210 “The interaction properties of costimulatory molecules revisited” Inhibition of Production of Interleukin-2 (IL-2) by Human Jurkat T Cells. Method
Human Raji cells were dispensed at a concentration of 2×10^5 cells per well in RPMI-1640 medium supplemented with 10% fetal calf serum, 1% penicillin/streptomycin, 1% glutamine (RPMI medium) in a 96-well round bottom microtitre plate. Compounds under investigation (dissolved in 100% DMSO) were diluted to eight-fold the desired final concentration in RPMI medium and added to the required final concentration for a total volume of 200 μl per well. After 20 minutes incubation at 37° C., Jurkat T cells were added at a concentration of 2×10^5 cells per well. Monoclonal antibody to CD3 (UCHT1, R&D Systems) was added to the cultures at a final concentration of 1 μg per ml, and where indicated, monoclonal antibody to CD28 (CD28.2, BD-Pharmingen) was also added at a concentration of 2.5 μg per ml. Cells were cultured at 37° C. for 5 hours, after which the plates were centrifuged and the supernatants harvested for IL-2 ELISA assay using the IL-2 Eli-pair kit (DIACLONE Research, Besancon, France) according to the manufacturers instructions.

CD80-CD28 interaction = molecular target: T1, CD80-CD28 interaction (Homo sapiens, UniProt P33681); experiment: Homogenous Time Resolved Fluorescence (HTRF) assay, cell free; format: binding; settings: 4 hours at room temperature, read-out: Activity (EC50 in the HTRF assay)
T1 sequence (P33681 35-242 limits assumed): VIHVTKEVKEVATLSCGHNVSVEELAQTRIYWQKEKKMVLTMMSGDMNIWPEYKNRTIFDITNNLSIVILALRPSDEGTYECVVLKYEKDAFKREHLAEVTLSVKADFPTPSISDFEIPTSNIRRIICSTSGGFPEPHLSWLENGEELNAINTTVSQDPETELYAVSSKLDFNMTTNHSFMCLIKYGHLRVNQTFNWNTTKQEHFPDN
In short: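 Europium and APC labels were linked through antibodies to CD28 and CD80 fusion proteins. Compounds were tested at 100 μM-1.7 nM for 4 h at room temperature in 50 mM Tris-HCl, 150 mM NaCl pH7.8, 0.1% BSA. Emission read at 665 and 615 nm (excitation 340 nm); non-specific signal measured with C215 Fab in place of CD80; EC50 reported in bands.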

[2] = cell-free HTRF, concentration series 100 μM-1.7 nM
[3] = cell free HTRF assay, concentration series 100 μM-1.7 nM
[4] = cell-free HTRF, compound concentration series 100 μM-1.7 nM

Row | EC50 (CD80-CD28 interaction; [3]) [µM] | EC50 (CD80-CD28 interaction; [4]) [µM] | SMILES | other results
1 | < 1 |  | O=C(NCC(F)F)c1ccc(-n2[nH]c3c(nnc4c(F)cccc43)c2=O)cc1 [Example 376] | inhibition at 10 µM [1]: 56.7%
2 | < 1 |  | O=C(NCCCN1CCOCC1)c1ccc(-n2[nH]c3c(nnc4c(F)cccc43)c2=O)cc1 [Example 350] | inhibition at 10 µM [1]: 74.2%
3 | < 1 |  | CN1CCC(NC(=O)c2ccc(-n3[nH]c4c(nnc5c(F)cccc54)c3=O)cc2)CC1 [Example 349] | inhibition at 10 µM [1]: 79.5%
4 |  | 1 to 10 | CC(CCCC(C)(C)O)NC(=O)c1ccc(-n2[nH]c3c(nnc4ccccc43)c2=O)cc1 (stereo not drawn) [Example 99] | 
5 |  | 1 to 10 | O=C(NCCNc1cccc2ccccc12)c1ccc(-n2[nH]c3c(nnc4ccccc43)c2=O)cc1 [Example 65] | 
6 |  | 1 to 10 | CCOCCCNC(=O)Nc1ccc(-n2[nH]c3c(nnc4ccccc43)c2=O)cc1 [Example 128] | 
7 | 1 to 10 |  | CC(C)CNC(=O)c1ccc(-n2[nH]c3c(nnc4ccccc43)c2=O)cc1 [Example 260] | 
8 | 1 to 10 |  | CCOC(=O)C1CCCC1NC(=O)c1ccc(-n2[nH]c3c(nnc4ccccc43)c2=O)cc1 (stereo not drawn) [Example 275] | 
9 |  | 1 to 10 | O=C(Nc1ccc(-n2[nH]c3c(nnc4ccccc43)c2=O)cc1)NC1CCOC1=O (stereo not drawn) [Example 166] | 
10 |  | 1 to 10 | CC(C)(C)OC(=O)NCCCCCCNC(=O)Nc1ccc(-n2[nH]c3c(nnc4ccccc43)c2=O)cc1 [Example 163] | 
11 | < 1 |  | O=C(NCCCNC1CCCCC1)c1ccc(-n2[nH]c3c(nnc4c(F)ccc(F)c43)c2=O)cc1 [Example 429] | inhibition at 10 µM [1]: 58.8%
12 | < 1 |  | CC1CCCCN1CCCNC(=O)c1ccc(-n2[nH]c3c(nnc4ccc(F)cc43)c2=O)cc1 (stereo not drawn) [Example 332] | 
13 |  | 1 to 10 | CCOC(=O)C(C)NC(=O)c1ccc(-n2[nH]c3c(nnc4ccccc43)c2=O)cc1 (stereo not drawn) [Example 66] | 
14 | > 10 |  | CCOC(=O)N1CCC(NC(=O)Nc2ccc(-n3[nH]c4c(nnc5ccccc54)c3=O)cc2)CC1 [Example 303] | 
15 |  | < 1 | CN(C)CCNC(=O)c1ccc(-n2[nH]c3c(nnc4ccccc43)c2=O)cc1 [Example 11] | 
16 |  | > 10 | CCCCCCC(C)NC(=O)c1ccc(-n2[nH]c3c(nnc4ccccc43)c2=O)cc1 (stereo not drawn) [Example 27] | 
17 | < 1 |  | CN1C(C)(C)CC(NC(=O)c2ccc(-n3[nH]c4c(nnc5ccc(F)cc54)c3=O)cc2)CC1(C)C [Example 427] | 
18 |  | < 1 | CCN(CC)CCCNC(=O)c1ccc(-n2[nH]c3c(nnc4ccccc43)c2=O)cc1 [Example 176] | 
19 |  | 1 to 10 | O=C(NCCc1ccccn1)Nc1ccc(-n2[nH]c3c(nnc4ccccc43)c2=O)cc1 [Example 196] | 
20 | > 10 |  | CCCCCNC(=O)c1ccc(-n2[nH]c3c(nnc4ccccc43)c2=O)cc1 [Example 251] | 
21 |  | 1 to 10 | CC1CCC(NC(=O)c2ccc(-n3[nH]c4c(nnc5ccccc54)c3=O)cc2)CC1 (stereo not drawn) [Example 62] | 
22 |  | < 1 | CC[C@@H](C)NC(=O)c1ccc(-n2[nH]c3c(nnc4ccccc43)c2=O)cc1 [Example 70] | 
23 |  | < 1 | O=C(NCCCN1CCCC1)c1ccc(-n2[nH]c3c(nnc4ccccc43)c2=O)cc1 [Example 79] | 
24 | < 1 |  | O=C(NCCc1cnc[nH]1)Nc1ccc(-n2[nH]c3c(nnc4ccccc43)c2=O)cc1 [Example 285] | 

The next lines start with the compound.

Row | SMILES | EC50 (CD80-CD28 interaction; [3]) [µM] | EC50 (CD80-CD28 interaction; [4]) [µM] | other results
25 | CCCNCCCNC(=O)c1ccc(-n2[nH]c3c(nnc4c(F)cccc43)c2=O)cc1 [Example 442] |  |  | inhibition at 10 µM [1]: 58.9%; EC50 (CD80-CD28 interaction; [2]): < 1 µM
26 | O=C(NC1CN2CCC1CC2)c1ccc(-n2[nH]c3c(nnc4c(F)cccc43)c2=O)cc1 (stereo not drawn) [Example 353] | < 1 |  | inhibition at 10 µM [1]: 77.4%
27 | CN(CCCCNC(=O)c1ccc(-n2[nH]c3c(nnc4c(F)cccc43)c2=O)cc1)C(C)(C)C [Example 478] |  |  | inhibition at 10 µM [1]: 56%; EC50 (CD80-CD28 interaction; [2]): < 1 µM
28 | CCN1CCC(NC(=O)c2ccc(-n3[nH]c4c(nnc5c(F)cccc54)c3=O)cc2)CC1 [Example 453] |  |  | inhibition at 10 µM [1]: 55.7%; EC50 (CD80-CD28 interaction; [2]): < 1 µM
29 | O=C(NCCCNC1CCCCC1)c1ccc(-n2[nH]c3c(nnc4c(F)cccc43)c2=O)cc1 [Example 235] | < 1 |  | inhibition at 10 µM [1]: 59.3%
30 | CN(C)C1CCC(NC(=O)c2ccc(-n3[nH]c4c(nnc5c(F)cccc54)c3=O)cc2)CC1 (stereo not drawn) [Example 472] |  |  | inhibition at 10 µM [1]: 58.4%; EC50 (CD80-CD28 interaction; [2]): < 1 µM
31 | CCN1CCCC1CNC(=O)Nc1ccc(-n2[nH]c3c(nnc4ccccc43)c2=O)cc1 (stereo not drawn) [Example 162] |  | < 1 | inhibition at 30 µM [1]: 54.4%
32 | N#CCNC(=O)c1ccc(-n2[nH]c3c(nnc4c(F)cccc43)c2=O)cc1 [Example 482] |  |  | inhibition at 10 µM [1]: 39.2%; EC50 (CD80-CD28 interaction; [2]): < 1 µM
33 | CN1C(C)(C)CC(NC(=O)c2ccc(-n3[nH]c4c(nnc5ccccc54)c3=O)cc2)CC1(C)C [Example 68] |  | < 1 | inhibition at 10 µM [1]: 71.7%
34 | O=C(NCCCCN1CCOCC1)c1ccc(-n2[nH]c3c(nnc4c(F)cccc43)c2=O)cc1 [Example 434] | < 1 |  | 
35 | CCOC(=O)CC(C)NC(=O)c1ccc(-n2[nH]c3c(nnc4ccccc43)c2=O)cc1 (stereo not drawn) [Example 34] |  | 1 to 10 | 
36 | CCCCNC(=O)Nc1ccc(-n2[nH]c3c(nnc4ccccc43)c2=O)cc1 [Example 177] |  | 1 to 10 | 
37 | O=C(NCCc1ccncc1)c1ccc(-n2[nH]c3c(nnc4ccccc43)c2=O)cc1 [Example 20] |  | < 1 | 
38 | CCC(C)CNC(=O)Nc1ccc(-n2[nH]c3c(nnc4ccccc43)c2=O)cc1 (stereo not drawn) [Example 308] | 1 to 10 |  | 
39 | CCOC(=O)CCNC(=O)c1ccc(-n2[nH]c3c(nnc4ccccc43)c2=O)cc1 [Example 116] |  | > 10 | 
40 | O=C(NCCc1ccc(Cl)c(Cl)c1)c1ccc(-n2[nH]c3c(nnc4c(F)cccc43)c2=O)cc1 [Example 372] | 1 to 10 |  | 
41 | O=C(NCCCCN1CCCC1)c1ccc(-n2[nH]c3c(nnc4ccc(Cl)cc43)c2=O)cc1 [Example 449] |  |  | EC50 (CD80-CD28 interaction; [2]): < 1 µM
42 | O=C(NC1CCCCCC1)c1ccc(-n2[nH]c3c(nnc4ccccc43)c2=O)cc1 [Example 24] |  | 1 to 10 | 
43 | COc1ccc(CNC(=O)c2ccc(-n3[nH]c4c(nnc5ccccc54)c3=O)cc2)c(OC)c1 [Example 236] | > 10 |  | 
44 | CC(C)OCCCNC(=O)c1ccc(-n2[nH]c3c(nnc4ccccc43)c2=O)cc1 [Example 53] |  | < 1 | inhibition at 30 µM [1]: 63.8%
45 | CCCCN(CCCC)CCCNC(=O)c1ccc(-n2[nH]c3c(nnc4ccc(F)cc43)c2=O)cc1 [Example 329] | < 1 |  | 
46 | CCOC(=O)C(C)NC(=O)Nc1ccc(-n2[nH]c3c(nnc4ccccc43)c2=O)cc1 (stereo not drawn) [Example 158] |  | 1 to 10 | 
47 | O=C(NCCCCN1CCCC1)c1ccc(-n2[nH]c3c(nnc4c(Cl)cccc43)c2=O)cc1 [Example 413] | < 1 |  | 
48 | O=C(NCCNCCO)c1ccc(-n2[nH]c3c(nnc4c(F)cccc43)c2=O)cc1 [Example 505] |  |  | EC50 (CD80-CD28 interaction; [2]): < 1 µM
49 | O=C(NCCCCN1CCCC1)c1ccc(-n2[nH]c3c(nnc4ccc(F)cc43)c2=O)cc1 [Example 325] | < 1 |  | 
50 | CN1C(C)(C)CC(NC(=O)c2ccc(-n3[nH]c4c(nnc5c(F)cccc54)c3=O)cc2)CC1(C)C [Example 234] | < 1 |  | 
51 | CC1(C)CCCC(C)(C)N1CCCCNC(=O)c1ccc(-n2[nH]c3c(nnc4c(F)cccc43)c2=O)cc1 [Example 466] |  |  | EC50 (CD80-CD28 interaction; [2]): < 1 µM
52 | CCOC(=O)N1CCC(NC(=O)c2ccc(-n3[nH]c4c(nnc5ccccc54)c3=O)cc2)CC1 [Example 104] |  | 1 to 10 | 
